According to article PMC9655037, “Alternation of Organ-Specific Exposure in LPS-Induced Pneumonia Mice after the Inhalation of Tetrandrine Is Governed by Metabolizing Enzyme Suppression and Lysosomal Trapping” (International Journal of Molecular Sciences, 2022):
Where “and” joins values, the source holds several entries; their conditions need not be identical. Equal entries are not always repeated. Where two headings read alike, the source gives them in different places.

Experiments:
[1] = test system: HEK293-MOCK cells; assay: Uptake by MOCK (empty vector) HEK293 cells; conditions: TET 5 μM, 5 min
Method: (§1) Expressing OATP1B1/OATP1B3 or MOCK HEK293 cells were utilized to evaluate whether TET is a substrate of these two SLC transporters. Cell culture was performed as mentioned above. Cells were seeded on 96-well plates at the density of 0.8 × 10^5 cells/well. The culture medium was replaced with a medium containing 5 mM sodium butyrate for 24 h before the transport study to enhance the expression of transporters. For the transport assay, the DMEM media were removed and the cells were washed with pre-warmed Krebs–Henseleit buffer twice (0.1 mL/well). The second washing buffer was kept in the wells and the plate was incubated at 37 °C for 5 min before the uptake assay was initiated. […] The incubation solution was removed and the cells were washed with ice-cold transportation buffer three times (0.1 mL/well). A total of 0.1 mL pure water was added to each well to lyse the cells by repeated freezing and thawing (−196 °C–37 °C, three times). The cell lysate was collected and stored at −40 °C for LC-MS/MS analysis and protein measurement.
(§2) In the uptake study of TET by OATP1B1 and OATP1B3 expressing the HEK293 cell line, the uptake clearance (U) of the substrate was calculated according to Equation (5), the transporter-mediated uptake ratio (UR) was calculated by dividing the uptake clearance from transporter-expressing cells to that from the mock cells according to Equation (6), and the inhibition ratio (IR) was calculated according to Equation (7), where p represents the protein content and T is the duration of the incubation time. (5) U=Clysate/p×T (6) UR=U/UMOCK (7) IR=(1−Uwith inhibitor−Umock with inhibitor/Uwithout inhibitor−Umock without inhibitor)×100

[2] = Pharmacokinetics of TET in blood after a single i.v. administration in normal and LPS-induced ALI mice; conditions: male, BALB/c, mouse, in vivo, 5 mg/kg; for AUC(0-inf) / AUC(0-t) / C0 / half-life / clearance / MRT last / Vd: iv, 5 mg/kg i.v., blood; for clearance: read-out: CL (in vivo CLblood) (converted); for MRT last: read-out: MRT(0-t)
Text: Twelve male BALB/c mice were randomly divided into two groups (n = 6 for each group). […]

[3] = molecular target: T1, OATP1B1 (Homo sapiens, UniProt Q9Y6L6); conditions: 5 min, 5 µM
T1 sequence (Q9Y6L6 1-691): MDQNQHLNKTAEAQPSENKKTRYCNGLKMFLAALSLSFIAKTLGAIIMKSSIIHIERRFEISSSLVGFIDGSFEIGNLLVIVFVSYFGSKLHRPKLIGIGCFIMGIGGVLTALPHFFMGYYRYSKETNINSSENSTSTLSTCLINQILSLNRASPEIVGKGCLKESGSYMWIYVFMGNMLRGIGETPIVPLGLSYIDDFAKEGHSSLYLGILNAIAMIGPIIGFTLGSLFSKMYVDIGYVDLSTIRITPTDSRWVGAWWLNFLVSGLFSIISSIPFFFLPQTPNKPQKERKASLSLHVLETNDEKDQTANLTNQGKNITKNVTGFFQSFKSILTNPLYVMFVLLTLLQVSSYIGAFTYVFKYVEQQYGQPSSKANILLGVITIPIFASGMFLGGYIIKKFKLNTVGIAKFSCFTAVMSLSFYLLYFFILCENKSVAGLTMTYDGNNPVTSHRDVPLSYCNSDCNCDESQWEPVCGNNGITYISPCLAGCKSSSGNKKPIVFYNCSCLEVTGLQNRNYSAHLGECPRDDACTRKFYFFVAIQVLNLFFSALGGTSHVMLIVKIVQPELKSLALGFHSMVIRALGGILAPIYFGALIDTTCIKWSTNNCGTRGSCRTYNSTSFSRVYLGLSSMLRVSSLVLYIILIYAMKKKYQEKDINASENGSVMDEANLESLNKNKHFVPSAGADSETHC
Method: as §1, with “A total of 0.1 mL pure water was added to each well to lyse the cells by repeated freezing and thawing (−196 °C–37 °C, three times). The cell lysate was collected and stored at −40 °C for LC-MS/MS analysis and protein measurement.” left out
as §2, with “(5) U=Clysate/p×T (6) UR=U/UMOCK (7) IR=(1−Uwith inhibitor−Umock with inhibitor/Uwithout inhibitor−Umock without inhibitor)×100” left out

[4] = Metabolic stability of TET in NADPH-supplemented liver microsomes from normal and LPS-induced ALI mice; assay type: in vitro ADME, mouse; conditions: for half-life at 1 µM: mouse, microsomes, 1.0 µM TET, 0.5 mg/mL protein, 37 °C, read-out: In vitro t1/2
Method: Liver and pulmonary microsomes from normal and LPS-induced pulmonary infected mice were isolated according to the conventional differential centrifugation approach. In brief, six normal mice and six acute pneumonia mice (48 h after i.t. administration of LPS) were sacrificed. Lungs and livers were harvested and rinsed with ice NS. The tissues were weighed and homogenized with 50 mM Tris buffer solution (TBS, m:v = 1:3). The prepared homogenate was then immediately centrifuged at 10,000× g at 4 °C for 20 min. The resulting supernatant was further centrifuged at 105,000× g at 4 °C for 60 min to yield mouse liver microsomes (MLM) and mouse pulmonary microsomes (MPM). The sediment was resuspended with storage buffer (50 mM TBS containing 0.25 M sucrose and 20% glycerol) and stored at −80 °C immediately. The protein content of the harvested microsomes was measured following the BCA protein assay protocol.
TET (1 μM, 1% acetonitrile) was incubated in normal or pneumonia mice liver microsomes or pulmonary microsomes (0.5 mg/mL) diluted with 100 mM PBS (pH 7.4) containing MgCl2 (3 mM). After preincubation of 5 min, the reaction was initiated by adding NADPH (final concentration of 1 mM) at 37 °C. Periodic aliquots of the incubation mixture at 0, 15, 30, and 45 min were removed, and the protein was precipitated with ice-cold acetonitrile containing IS. After centrifugation, the supernatant was collected and analyzed for the depletion of TET by LC-MS/MS.
The in vitro t1/2 in mouse liver microsomal incubation was calculated from the semi-log plot of percentage remaining vs. incubation time and intrinsic clearance (CLint,app mL/min/mg protein) was calculated as Equation (2).
(3) CLint,scaled=CLint,app×45mg microsomes/g liver×g liver/kg body weight (4) CLh,blood=Q×fu,p/Rb/p×CLint/fu,mic/Q+CLint·fu,p/Rb·CLint/fu,mic

COc1ccc2cc1Oc1ccc(cc1)C[C@H]1c3cc(c(OC)cc3CCN1C)Oc1c(OC)c(OC)cc3c1[C@H](C2)N(C)CC3 [TET, Tetrandrine]
Uptake Clearance ([1]; MOCK (OATP1B1 set)): 131 ± 11.3 nM/min/mg Protein | Uptake Clearance ([1]; MOCK (OATP1B3 set)): 126 ± 10.9 nM/min/mg Protein | Uptake Clearance ([1]; MOCK+RIF (OATP1B1 set)): 117 ± 12.8 nM/min/mg Protein | Uptake Clearance ([1]; MOCK+RIF (OATP1B3 set)): 119 ± 8.03 nM/min/mg Protein | increased Vz, LPS-treated vs normal mice [2]: ~ 134% | AUC(0-inf) ([2]; LPS-treated mice): 65700 ± 17500 ng·h/mL | AUC(0-t) ([2]; LPS-treated mice): 44100 ± 8460 ng·h/mL | C0 ([2]; LPS-treated mice): 2300 ± 935 ng/mL | half-life ([2]; LPS-treated mice): 93.2 ± 26.4 h | clearance ([2]; LPS-treated mice): 1.35 mL/min/kg | MRT last ([2]; LPS-treated mice): 137 ± 40.4 h | Vd ([2]; LPS-treated mice, read-out: Vss): 10.5 ± 1.77 L/kg | Vd ([2]; LPS-treated mice, read-out: Vz): 10.3 ± 1.75 L/kg | AUC(0-inf) ([2]; normal mice): 29500 ± 3790 ng·h/mL | AUC(0-t) ([2]; normal mice): 26300 ± 3420 ng·h/mL | C0 ([2]; normal mice): 2270 ± 270 ng/mL | half-life ([2]; normal mice): 30.7 ± 5.21 h | clearance ([2]; normal mice): 2.87 mL/min/kg | MRT last ([2]; normal mice): 72.7 ± 6.4 h | Vd ([2]; normal mice, read-out: Vss): 7.71 ± 2.01 L/kg | Vd ([2]; normal mice, read-out: Vz): 12.5 ± 1.63 L/kg | Inhibition Ratio [3]: 11.1 | Uptake Ratio [3]: 1.2 | CLhep,blood (hepatic clearance, well-stirred model) ([4]; LPS-treated mice liver microsomes): 1.48 mL/min/kg and 1.48 ± 0.0136 mL/min/kg | half-life at 1 µM ([4]; pH 7.4, LPS-treated mice liver microsomes): 1.4 ± 0.013 h | half-life at 1 µM ([4]; pH 7.4, normal mice liver microsomes): 0.88 ± 0.0292 h | CLhep,blood (hepatic clearance, well-stirred model) ([4]; normal mice liver microsomes): 2.33 mL/min/kg and 2.33 ± 0.075 mL/min/kg
